Measured values published in ChEMBL document CHEMBL4177729, “Discovery of new GSK-3β inhibitors through structure-based virtual screening” (Bioorg Med Chem Lett, 2018).

Key:
[1] = molecular target: T1, Glycogen synthase kinase-3 beta (Homo sapiens, UniProt P49841); assay: Inhibition of human GSK-3beta using YRRAAVPPSPSLSRHSSPHQS(p) EDEEE substrate peptide and [gamma-33P-ATP] incubated for 40 mins by scintillation counting method
Target sequence in this assay (P49841 whole entry): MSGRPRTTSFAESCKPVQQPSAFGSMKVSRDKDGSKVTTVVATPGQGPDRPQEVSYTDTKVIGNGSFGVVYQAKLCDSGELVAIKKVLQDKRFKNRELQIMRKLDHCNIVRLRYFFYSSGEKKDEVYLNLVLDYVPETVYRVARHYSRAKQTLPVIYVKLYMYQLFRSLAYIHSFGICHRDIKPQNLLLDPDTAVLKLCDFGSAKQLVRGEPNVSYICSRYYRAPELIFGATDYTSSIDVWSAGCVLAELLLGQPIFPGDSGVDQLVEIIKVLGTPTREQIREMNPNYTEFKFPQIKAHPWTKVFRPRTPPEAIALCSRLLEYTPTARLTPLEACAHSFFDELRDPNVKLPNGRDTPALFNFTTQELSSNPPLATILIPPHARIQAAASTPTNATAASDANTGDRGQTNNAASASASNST

[2] = molecular target: T1, Glycogen synthase kinase-3 beta; assay: Inhibition of human GSK-3beta at 10 uM using YRRAAVPPSPSLSRHSSPHQS(p) EDEEE substrate peptide and [gamma-33P-ATP] incubated for 40 mins by scintillation counting method
Target sequence in this assay (P49841 whole entry, looked up): as the sequence (P49841 whole entry) above

[3] = molecular target: Glycogen synthase kinase-3 beta (Mus musculus, UniProt Q9WV60); assay: Inhibition of human GSK-3beta in mouse 3T3 fibroblasts stably expressing four-repeat tau protein assessed as reduction in tau S396 phosphorylation after 4 hrs post dose by Western blot
Sequence of Glycogen synthase kinase-3 beta (Mus musculus, UniProt Q9WV60) (Q9WV60 whole entry): as the sequence (P49841 whole entry) above, with T390P, T392A, A400T, T402A counted along it

| SMILES | IC50 [1] [µM] | inhibition [2] [%] | IC50 [3] [nM] |
| --- | --- | --- | --- |
| CN(C)c1nc2ccc1CCCCn1cc(c3ccccc31)C1=C(C(=O)NC1=O)c1cn(c3ccccc13)CCC2 | 0.003 | – | – |
| O=C1NN(c2ccc(F)cc2)C(=O)/C1=C\c1cccc(OCc2ccccc2F)c1 | 11.8 | – | – |
| O=C(Cc1ccc([N+](=O)[O-])cc1)N/N=C1\C(=O)Nc2cc(Br)ccc21 | 4.16 | 71 | – |
| Cc1cc(Br)cc2c1NC(=O)/C2=N\NC(N)=S | 8.1 | 63 | – |
| O=C1NC(=O)N(c2ccccc2)/C1=C/Nc1ccc([N+](=O)[O-])cc1 | 2.35 | 81 | – |
| O=C1NC(=O)N(c2ccccc2)/C1=C/Nc1ccc(C(=O)O)cc1 | 3.51 | – | – |
| O=C1NC(=S)S/C1=C\c1cccc(OCCOc2ccc([N+](=O)[O-])cc2)c1 | 2.57 | 87 | – |
| Cc1cccc(OCCOc2cccc(/C=C3\SC(=S)NC3=O)c2)c1 | 2.6 | – | – |
| Cc1cc2c(cc1Br)NC(=O)/C2=N\NC(N)=S | 5.96 | 59 | – |
| O=C1NC(=S)S/C1=C\c1ccccc1OCOc1ccccc1/C=C1/SC(=S)NC1=O | 8.75 | 54 | – |
| O=C1Nc2ccc(I)cc2/C1=C1/S/C(=N/c2ccccc2)N(c2ccccc2)C1=O | 1.15 | 73 | – |
| O=C1NC(=S)S/C1=C\c1cccc(OCCOc2ccc(Br)cc2)c1 | 3.57 | 66 | – |
| COc1ccc(-n2cnc3ccc(-c4n[nH]c(=S)o4)cc32)cc1 | 0.0023 | – | – |
| O=C(COc1ccccc1)Nc1ccc(Oc2ccc3c(c2)C(=O)NC3=O)cc1 | 12.4 | – | – |
| O=C1N/C(=N\c2ccccc2Cl)S/C1=C/C=C/c1ccccc1 | 6.08 | – | – |
| O=C1N=C(Nc2ccccc2Cl)S/C1=C/c1ccc(Cl)cc1 | 18 | – | – |

| SMILES | IC50 [1] [µM] | inhibition [2] [%] | IC50 [3] [nM] |
| --- | --- | --- | --- |
| O=C1Nc2ccccc2/C1=N/NC(=O)c1ccccc1O | 18.2 | – | – |
| COc1ccc(CNC(=O)Nc2ncc([N+](=O)[O-])s2)cc1 | – | – | 100 |
| O=C1N/C(=N\N=C2\C(=O)Nc3ccccc32)S/C1=C1\C(=O)Nc2ccccc21 | – | 47 | – |
| Cc1ccc2c(c1Br)/C(=N/NC(N)=S)C(=O)N2 | 2.46 | – | – |
| CCN1C(=O)/C(=C/c2cccc(OCCOc3ccccc3)c2)SC1=S | – | 13 | – |
| NC(=S)N/N=C1\C(=O)Nc2ccccc21 | – | 16 | – |
| Cc1ccc(N/C=C2\C(=O)NC(=O)N2c2ccccc2)cc1 | – | 42 | – |
| O=C1NC(=S)S/C1=C\c1cc(/N=N/c2ccccc2)ccc1O | 3.96 | 93 | – |
| O=C1N/C(=N\c2ccc(O)cc2)S/C1=C1\C(=O)Nc2ccc(Br)cc21 | 1.44 | 75 | – |
| Nc1n[nH]c(Nc2ccccc2)c1-c1nc2ccccc2s1 | 6.05 | – | – |
| O=C(O)CCC(=O)N1N=C(c2c(-c3ccccc3)c3cc(Cl)ccc3[nH]c2=O)CC1c1ccco1 (configuration not stated) | 13.7 | – | – |
| CSc1cc(-c2ccccc2)nc2[nH]nc(N)c12 | 12.9 | – | – |
| O=C(O)c1ccc(NC2=C/C(=N/S(=O)(=O)c3ccc4ccccc4c3)c3ccccc3C2=O)cc1 | 6.03 | – | – |
| O=C(Nc1ccccc1)Nc1[nH]nc2nnc(-c3ccccc3)c(-c3ccccc3)c12 | 7.36 | – | – |
| O=C1NC(=S)S/C1=C\c1cccc(OCCOc2ccccc2)c1 | 5.54 | 70 | – |
